Assay results published in publication PMC7385619, “A triple action CDK4/6-PI3K-BET inhibitor with augmented cancer cell cytotoxicity” (Cell Discovery, 2020).
Read-outs that look alike come from different tables or passages of the source.

Experiments:
Test in all cases: KINOMEscan assay (Eurofins DiscoverX)
Type in all cases: binding
kinome (kinase panel) [1] = molecular target: T1, kinome (kinase panel) (Homo sapiens, UniProt O00750); settings: PIK3C2B; 1000 nM; read-out: Percent Control
T1 construct: purchased Eurofins DiscoverX

kinome (kinase panel) [2] = molecular target: T2, kinome (kinase panel) (Homo sapiens, UniProt O14757); settings: CHEK1; 1000 nM; read-out: Percent Control
T2 construct: purchased Eurofins DiscoverX

kinome (kinase panel) [3] = molecular target: T3, kinome (kinase panel) (Homo sapiens, UniProt O75676); settings: 1000 nM, read-out: Percent Control
T3 construct: purchased Eurofins DiscoverX

kinome (kinase panel) [4] = molecular target: T4, kinome (kinase panel) (Homo sapiens, UniProt O94804); settings: LOK (Entrez STK10); 1000 nM; read-out: Percent Control
T4 construct: purchased Eurofins DiscoverX

kinome (kinase panel) [5] = molecular target: T5, kinome (kinase panel) (Homo sapiens, UniProt P00519, T315I)
T5 construct: purchased Eurofins DiscoverX

kinome (kinase panel) [6] = molecular target: T6, kinome (kinase panel) (Homo sapiens, UniProt P07949, V804M); settings: read-out: Percent Control
T6 construct: purchased Eurofins DiscoverX

kinome (kinase panel) [7] = molecular target: T7, kinome (kinase panel) (Homo sapiens, UniProt P27361); settings: ERK1 (Entrez MAPK3); 1000 nM; read-out: Percent Control
T7 construct: purchased Eurofins DiscoverX

kinome (kinase panel) [8] = molecular target: T8, kinome (kinase panel) (Homo sapiens, UniProt P28482); settings: ERK2 (Entrez MAPK1); 1000 nM; read-out: Percent Control
T8 construct: purchased Eurofins DiscoverX

kinome (kinase panel) [9] = molecular target: T9, kinome (kinase panel) (Homo sapiens, UniProt P30291); settings: WEE1; 1000 nM; read-out: Percent Control
T9 construct: purchased Eurofins DiscoverX

kinome (kinase panel) [10] = molecular target: T10, kinome (kinase panel) (Homo sapiens, UniProt P32298); settings: GRK4; 1000 nM; read-out: Percent Control
T10 construct: purchased Eurofins DiscoverX

kinome (kinase panel) [11] = molecular target: T11, kinome (kinase panel) (Homo sapiens, UniProt P36507); settings: MEK2 (Entrez MAP2K2); 1000 nM; read-out: Percent Control
T11 construct: purchased Eurofins DiscoverX

kinome (kinase panel) [12] = molecular target: T12, kinome (kinase panel) (Homo sapiens, UniProt P36894); settings: BMPR1A; 1000 nM; read-out: Percent Control
T12 construct: purchased Eurofins DiscoverX

kinome (kinase panel) [13] = molecular target: T13, kinome (kinase panel) (Homo sapiens, UniProt P37023); settings: ACVRL1; 1000 nM; read-out: Percent Control
T13 construct: purchased Eurofins DiscoverX

kinome (kinase panel) [14] = molecular target: T14, kinome (kinase panel) (Homo sapiens, UniProt P41240); settings: CSK; 1000 nM; read-out: Percent Control
T14 construct: purchased Eurofins DiscoverX

kinome (kinase panel) [15] = molecular target: T15, kinome (kinase panel) (Homo sapiens, UniProt P42679); settings: CTK (Entrez MATK); 1000 nM; read-out: Percent Control
T15 construct: purchased Eurofins DiscoverX

kinome (kinase panel) [16] = molecular target: T16, kinome (kinase panel) (Homo sapiens, UniProt P49840); settings: GSK3A; 1000 nM; read-out: Percent Control
T16 construct: purchased Eurofins DiscoverX

kinome (kinase panel) [17] = molecular target: T17, kinome (kinase panel) (Homo sapiens, UniProt P51956); settings: NEK3; 1000 nM; read-out: Percent Control
T17 construct: purchased Eurofins DiscoverX

kinome (kinase panel) [18] = molecular target: T18, kinome (kinase panel) (Homo sapiens, UniProt P53355); settings: DAPK1; 1000 nM; read-out: Percent Control
T18 construct: purchased Eurofins DiscoverX

kinome (kinase panel) [19] = molecular target: T19, kinome (kinase panel) (Homo sapiens, UniProt Q04759); settings: PRKCQ; 1000 nM; read-out: Percent Control
T19 construct: purchased Eurofins DiscoverX

kinome (kinase panel) [20] = molecular target: T20, kinome (kinase panel) (Homo sapiens, UniProt Q15208); settings: NDR1 (Entrez STK38); 1000 nM; read-out: Percent Control
T20 construct: purchased Eurofins DiscoverX

kinome (kinase panel) [21] = molecular target: T21, kinome (kinase panel) (Homo sapiens, UniProt Q16539); settings: p38-alpha (Entrez MAPK14); 1000 nM; read-out: Percent Control
T21 construct: purchased Eurofins DiscoverX

kinome (kinase panel) [22] = molecular target: T22, kinome (kinase panel) (Homo sapiens, UniProt Q16584); settings: MLK3 (Entrez MAP3K11); 1000 nM; read-out: Percent Control
T22 construct: purchased Eurofins DiscoverX

kinome (kinase panel) [23] = molecular target: T23, kinome (kinase panel) (Homo sapiens, UniProt Q6ZN16); settings: MAP3K15; 1000 nM; read-out: Percent Control
T23 construct: purchased Eurofins DiscoverX

kinome (kinase panel) [24] = molecular target: T24, kinome (kinase panel) (Homo sapiens, UniProt Q8NFD2); settings: ANKK1; 1000 nM; read-out: Percent Control
T24 construct: purchased Eurofins DiscoverX

kinome (kinase panel) [25] = molecular target: T25, kinome (kinase panel) (Homo sapiens, UniProt Q8WTQ7); settings: GRK7; 1000 nM; read-out: Percent Control
T25 construct: purchased Eurofins DiscoverX

kinome (kinase panel) [26] = molecular target: T26, kinome (kinase panel) (Homo sapiens, UniProt Q96Q40); settings: PFTAIRE2 (Entrez CDK15); 1000 nM; read-out: Percent Control
T26 construct: purchased Eurofins DiscoverX

kinome (kinase panel) [27] = molecular target: T27, kinome (kinase panel) (Homo sapiens, UniProt Q9H422); settings: HIPK3; 1000 nM; read-out: Percent Control
T27 construct: purchased Eurofins DiscoverX

kinome (kinase panel) [28] = molecular target: T28, kinome (kinase panel) (Homo sapiens, UniProt Q9P0L2); settings: MARK1; 1000 nM; read-out: Percent Control
T28 construct: purchased Eurofins DiscoverX

kinome (kinase panel) [29] = molecular target: T29, kinome (kinase panel) (Homo sapiens, UniProt Q9UEE5); settings: DRAK1 (Entrez STK17A); 1000 nM; read-out: Percent Control
T29 construct: purchased Eurofins DiscoverX

kinome (kinase panel) [30] = molecular target: T30, kinome (kinase panel) (Homo sapiens, UniProt Q9UL54); settings: TAOK2; 1000 nM; read-out: Percent Control
T30 construct: purchased Eurofins DiscoverX

kinome (kinase panel) [31] = molecular target: T31, kinome (kinase panel) (Homo sapiens, UniProt Q9UPZ9); settings: ICK; 1000 nM; read-out: Percent Control
T31 construct: purchased Eurofins DiscoverX

kinome (kinase panel) [32] = molecular target: T32, kinome (kinase panel) (Homo sapiens, UniProt Q9Y2H9); settings: MAST1; 1000 nM; read-out: Percent Control
T32 construct: purchased Eurofins DiscoverX

T3 sequence (O75676 whole entry): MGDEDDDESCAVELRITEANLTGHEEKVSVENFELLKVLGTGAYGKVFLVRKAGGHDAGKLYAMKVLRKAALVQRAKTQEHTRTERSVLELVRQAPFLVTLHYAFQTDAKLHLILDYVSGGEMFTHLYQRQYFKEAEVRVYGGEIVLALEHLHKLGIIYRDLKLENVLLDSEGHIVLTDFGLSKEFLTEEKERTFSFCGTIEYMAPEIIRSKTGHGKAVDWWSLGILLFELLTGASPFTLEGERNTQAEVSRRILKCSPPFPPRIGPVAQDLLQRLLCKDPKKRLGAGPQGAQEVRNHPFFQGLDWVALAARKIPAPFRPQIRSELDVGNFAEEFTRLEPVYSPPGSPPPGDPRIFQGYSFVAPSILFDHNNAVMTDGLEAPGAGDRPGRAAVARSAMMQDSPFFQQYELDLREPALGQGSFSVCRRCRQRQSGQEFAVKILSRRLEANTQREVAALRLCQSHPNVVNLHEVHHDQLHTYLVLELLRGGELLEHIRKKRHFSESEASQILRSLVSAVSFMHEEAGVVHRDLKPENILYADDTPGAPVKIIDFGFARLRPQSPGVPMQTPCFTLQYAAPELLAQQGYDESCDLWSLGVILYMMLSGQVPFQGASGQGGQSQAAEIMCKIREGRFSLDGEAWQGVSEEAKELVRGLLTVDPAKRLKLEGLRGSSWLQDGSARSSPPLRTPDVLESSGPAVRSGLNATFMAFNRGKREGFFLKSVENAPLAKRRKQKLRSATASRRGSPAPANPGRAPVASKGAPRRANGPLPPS
T23 sequence (Q6ZN16 whole entry): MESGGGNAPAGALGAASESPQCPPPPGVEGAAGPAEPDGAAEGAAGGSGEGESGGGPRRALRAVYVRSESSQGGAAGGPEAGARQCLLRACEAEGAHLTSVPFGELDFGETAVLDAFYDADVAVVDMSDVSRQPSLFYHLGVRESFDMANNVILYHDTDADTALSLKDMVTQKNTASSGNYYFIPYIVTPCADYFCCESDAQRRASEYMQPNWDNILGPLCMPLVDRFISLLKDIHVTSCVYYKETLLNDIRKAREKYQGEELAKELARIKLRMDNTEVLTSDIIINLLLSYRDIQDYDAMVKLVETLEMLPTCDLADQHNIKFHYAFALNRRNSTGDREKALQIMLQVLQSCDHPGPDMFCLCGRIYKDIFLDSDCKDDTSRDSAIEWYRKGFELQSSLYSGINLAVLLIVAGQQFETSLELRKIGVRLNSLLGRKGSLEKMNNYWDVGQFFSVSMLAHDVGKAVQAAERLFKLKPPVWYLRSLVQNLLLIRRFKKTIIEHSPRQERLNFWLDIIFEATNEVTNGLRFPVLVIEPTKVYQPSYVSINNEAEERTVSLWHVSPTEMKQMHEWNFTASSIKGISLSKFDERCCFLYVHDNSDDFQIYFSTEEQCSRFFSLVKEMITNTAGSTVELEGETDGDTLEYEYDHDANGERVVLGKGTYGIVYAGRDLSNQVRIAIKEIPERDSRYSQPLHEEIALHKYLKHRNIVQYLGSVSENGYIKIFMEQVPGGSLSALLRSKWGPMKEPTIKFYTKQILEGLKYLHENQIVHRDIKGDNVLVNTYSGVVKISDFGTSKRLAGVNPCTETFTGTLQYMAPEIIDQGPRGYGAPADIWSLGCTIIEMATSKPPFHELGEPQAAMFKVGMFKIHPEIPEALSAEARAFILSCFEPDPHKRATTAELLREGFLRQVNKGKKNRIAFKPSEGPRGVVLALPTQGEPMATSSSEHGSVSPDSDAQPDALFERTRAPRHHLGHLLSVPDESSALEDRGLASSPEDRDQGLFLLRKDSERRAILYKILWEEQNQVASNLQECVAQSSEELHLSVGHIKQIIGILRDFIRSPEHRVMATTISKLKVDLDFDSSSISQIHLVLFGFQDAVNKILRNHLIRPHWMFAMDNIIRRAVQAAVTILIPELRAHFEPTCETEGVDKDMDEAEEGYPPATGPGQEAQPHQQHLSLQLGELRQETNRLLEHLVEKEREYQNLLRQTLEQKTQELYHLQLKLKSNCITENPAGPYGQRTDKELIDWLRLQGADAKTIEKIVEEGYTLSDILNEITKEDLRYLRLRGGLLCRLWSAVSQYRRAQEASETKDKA
T21 sequence (Q16539 whole entry): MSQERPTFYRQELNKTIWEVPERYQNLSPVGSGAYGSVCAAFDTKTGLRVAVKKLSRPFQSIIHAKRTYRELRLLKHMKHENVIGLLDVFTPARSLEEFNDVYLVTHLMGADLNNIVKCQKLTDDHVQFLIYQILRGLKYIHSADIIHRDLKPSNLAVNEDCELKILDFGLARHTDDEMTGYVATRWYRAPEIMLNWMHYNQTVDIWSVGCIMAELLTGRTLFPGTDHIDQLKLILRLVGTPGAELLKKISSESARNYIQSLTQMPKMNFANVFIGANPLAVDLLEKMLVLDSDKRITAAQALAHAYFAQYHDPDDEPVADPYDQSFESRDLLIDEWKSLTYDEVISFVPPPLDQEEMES
T10 sequence (P32298 whole entry): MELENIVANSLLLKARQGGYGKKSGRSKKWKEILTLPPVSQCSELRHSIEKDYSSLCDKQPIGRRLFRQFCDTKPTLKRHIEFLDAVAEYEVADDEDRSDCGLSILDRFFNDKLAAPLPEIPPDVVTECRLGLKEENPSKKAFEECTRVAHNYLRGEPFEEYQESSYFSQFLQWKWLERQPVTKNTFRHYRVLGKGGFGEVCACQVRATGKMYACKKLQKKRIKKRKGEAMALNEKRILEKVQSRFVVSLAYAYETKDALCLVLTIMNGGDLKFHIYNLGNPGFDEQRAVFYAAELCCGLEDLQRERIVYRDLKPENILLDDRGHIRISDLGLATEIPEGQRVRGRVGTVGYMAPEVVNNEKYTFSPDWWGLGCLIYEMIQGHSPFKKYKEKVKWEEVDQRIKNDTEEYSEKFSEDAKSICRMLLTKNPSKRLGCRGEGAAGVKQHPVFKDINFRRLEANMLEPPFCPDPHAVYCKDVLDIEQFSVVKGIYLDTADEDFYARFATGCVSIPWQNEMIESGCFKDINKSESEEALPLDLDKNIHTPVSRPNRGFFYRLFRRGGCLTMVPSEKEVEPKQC
T2 sequence (O14757 whole entry): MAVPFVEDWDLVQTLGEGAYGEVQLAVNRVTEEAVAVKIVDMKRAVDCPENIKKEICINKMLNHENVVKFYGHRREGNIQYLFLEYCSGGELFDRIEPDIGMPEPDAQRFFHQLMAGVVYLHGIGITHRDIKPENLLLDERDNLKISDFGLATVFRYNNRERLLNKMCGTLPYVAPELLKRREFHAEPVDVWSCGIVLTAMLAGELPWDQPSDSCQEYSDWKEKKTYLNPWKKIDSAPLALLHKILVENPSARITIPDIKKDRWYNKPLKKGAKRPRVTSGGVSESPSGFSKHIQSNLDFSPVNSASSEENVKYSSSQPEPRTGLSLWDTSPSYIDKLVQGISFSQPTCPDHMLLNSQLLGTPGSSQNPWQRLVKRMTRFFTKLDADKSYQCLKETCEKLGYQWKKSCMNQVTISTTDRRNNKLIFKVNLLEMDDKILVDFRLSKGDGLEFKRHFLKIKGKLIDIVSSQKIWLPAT
T9 sequence (P30291 whole entry): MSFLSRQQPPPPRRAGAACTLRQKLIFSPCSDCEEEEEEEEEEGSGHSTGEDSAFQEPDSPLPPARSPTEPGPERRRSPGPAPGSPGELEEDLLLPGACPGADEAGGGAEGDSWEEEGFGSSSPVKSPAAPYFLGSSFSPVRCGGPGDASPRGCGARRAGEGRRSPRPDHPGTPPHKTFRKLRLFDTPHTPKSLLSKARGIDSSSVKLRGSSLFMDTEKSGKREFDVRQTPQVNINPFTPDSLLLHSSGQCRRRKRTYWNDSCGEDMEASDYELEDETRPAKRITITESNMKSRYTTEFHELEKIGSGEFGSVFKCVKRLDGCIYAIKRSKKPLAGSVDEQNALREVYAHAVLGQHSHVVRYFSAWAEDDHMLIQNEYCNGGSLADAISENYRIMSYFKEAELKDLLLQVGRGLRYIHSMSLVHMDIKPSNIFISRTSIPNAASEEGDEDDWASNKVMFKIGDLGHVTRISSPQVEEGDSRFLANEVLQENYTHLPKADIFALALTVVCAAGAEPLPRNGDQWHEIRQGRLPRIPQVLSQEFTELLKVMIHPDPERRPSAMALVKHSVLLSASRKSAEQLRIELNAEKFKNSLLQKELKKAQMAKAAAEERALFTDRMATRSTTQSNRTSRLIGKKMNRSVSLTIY
T29 sequence (Q9UEE5 whole entry): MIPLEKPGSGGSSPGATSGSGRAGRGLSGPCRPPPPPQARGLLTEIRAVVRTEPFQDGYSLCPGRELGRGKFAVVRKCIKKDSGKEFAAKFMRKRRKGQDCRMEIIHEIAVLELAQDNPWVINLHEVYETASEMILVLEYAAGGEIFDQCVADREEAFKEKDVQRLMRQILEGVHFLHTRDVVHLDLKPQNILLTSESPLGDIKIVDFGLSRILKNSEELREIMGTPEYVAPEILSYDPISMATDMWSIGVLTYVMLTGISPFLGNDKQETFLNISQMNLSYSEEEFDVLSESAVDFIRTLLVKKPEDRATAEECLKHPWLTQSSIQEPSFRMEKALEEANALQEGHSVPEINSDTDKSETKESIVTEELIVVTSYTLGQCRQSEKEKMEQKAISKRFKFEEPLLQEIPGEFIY
T26 sequence (Q96Q40 whole entry): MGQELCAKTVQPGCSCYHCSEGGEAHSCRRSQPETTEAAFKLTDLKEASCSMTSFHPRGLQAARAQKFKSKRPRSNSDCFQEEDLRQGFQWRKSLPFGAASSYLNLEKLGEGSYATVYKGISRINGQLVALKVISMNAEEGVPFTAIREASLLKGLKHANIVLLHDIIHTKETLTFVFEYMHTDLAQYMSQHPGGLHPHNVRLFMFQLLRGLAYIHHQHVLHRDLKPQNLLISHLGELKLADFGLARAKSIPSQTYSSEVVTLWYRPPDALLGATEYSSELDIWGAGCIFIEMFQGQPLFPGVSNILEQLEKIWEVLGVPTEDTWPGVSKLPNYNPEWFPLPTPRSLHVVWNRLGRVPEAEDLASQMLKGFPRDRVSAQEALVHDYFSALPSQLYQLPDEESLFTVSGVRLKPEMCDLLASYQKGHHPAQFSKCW

`CN(C)C(=O)c1cc2cnc(Nc3ccc(-c4csc5c(=O)cc(N6CCOCC6)oc45)cc3)nc2n1C1CCCC1` [SRX3177] gave a remaining binding at 1 µM (kinome (kinase panel) [1]) of 86%, a remaining binding at 1 µM (kinome (kinase panel) [2]) of 100% and a remaining binding at 1 µM (kinome (kinase panel) [3]; RPS6KA4(Kin.Dom.1-N-terminal)) of 100%. For the same compound, the remaining binding at 1 µM (kinome (kinase panel) [3]; RPS6KA4(Kin.Dom.2-C-terminal)) was 55%, the remaining binding at 1 µM (kinome (kinase panel) [4]) was 100% and the “Percent Control” value (kinome (kinase panel) [5]) was 79. The remaining binding at 1 µM (kinome (kinase panel) [5]; read-out: Percent Control) was 88%, the remaining binding at 1 µM (kinome (kinase panel) [6]) was 100% and the remaining binding at 1 µM (kinome (kinase panel) [7]) was 100%. The remaining binding at 1 µM (kinome (kinase panel) [8]) was 100%, the remaining binding at 1 µM (kinome (kinase panel) [9]) was 99% and the remaining binding at 1 µM (kinome (kinase panel) [10]) was 39%. For the same compound, the remaining binding at 1 µM (kinome (kinase panel) [11]) was 50%, the remaining binding at 1 µM (kinome (kinase panel) [12]) was 100% and the remaining binding at 1 µM (kinome (kinase panel) [13]) was 100%. For the same compound, the remaining binding at 1 µM (kinome (kinase panel) [14]) was 100%, the remaining binding at 1 µM (kinome (kinase panel) [15]) was 94% and the remaining binding at 1 µM (kinome (kinase panel) [16]) was 60%. It also gave a remaining binding at 1 µM (kinome (kinase panel) [17]) of 90%, a remaining binding at 1 µM (kinome (kinase panel) [18]) of 100% and a remaining binding at 1 µM (kinome (kinase panel) [19]) of 73%. The remaining binding at 1 µM (kinome (kinase panel) [20]) was 99%, the remaining binding at 1 µM (kinome (kinase panel) [21]) was 100% and the remaining binding at 1 µM (kinome (kinase panel) [22]) was 73%. For the same compound, the remaining binding at 1 µM (kinome (kinase panel) [23]) was 100%, the remaining binding at 1 µM (kinome (kinase panel) [24]) was 50% and the remaining binding at 1 µM (kinome (kinase panel) [25]) was 100%. It also gave a remaining binding at 1 µM (kinome (kinase panel) [26]) of 90%, a remaining binding at 1 µM (kinome (kinase panel) [27]) of 77% and a remaining binding at 1 µM (kinome (kinase panel) [28]) of 100%. For the same compound, the remaining binding at 1 µM (kinome (kinase panel) [29]) was 100%, the remaining binding at 1 µM (kinome (kinase panel) [30]) was 20% and the remaining binding at 1 µM (kinome (kinase panel) [31]) was 9.8%. It also gave a remaining binding at 1 µM (kinome (kinase panel) [32]) of 53%.
